# Source: patent US20250249006A1, “TREATMENT” (Verona Pharma PLC, priority 2024, published 2025)
# Assays:
# [1] = test system: patients aged 40-80 years with moderate to severe COPD; assay: Clinical studies, ensifentrine vs placebo: COPD symptom responders (E-RS −2 units or TDI +1 unit) in patients with low FEV1 response; assay type: in vivo; conditions: for Ensifentrine vs. Placebo Odds Ratio, E-RS (−2 Unit) or TDI (+1 Unit) Responders / Odds in favor of a response, E-RS (−2 Unit) or TDI (+1 Unit) Responders / Ensifentrine vs. Placebo Odds Ratio, TDI (+1 Unit) or E-RS (−2 Unit) Responders / Odds in favor of a response, TDI (+1 Unit) or E-RS (−2 Unit) Responders: logistic regression; for Ensifentrine vs. Placebo Odds Ratio, E-RS (−2 Unit) or TDI (+1 Unit) Responders / Odds in favor of a response, E-RS (−2 Unit) or TDI (+1 Unit) Responders / % E-RS (−2 Unit) or TDI (+1 Unit) Responders / % responders, E-RS (−2 Units) or TDI (+1 Unit) Responders / Ensifentrine v placebo Odds Ratio, E-RS (−2 Units) or TDI (+1 Unit) Responders / Odds in favour of response, E-RS (−2 Units) or TDI (+1 Unit) Responders / Ensifentrine vs. Placebo Odds Ratio, TDI (+1 Unit) or E-RS (−2 Unit) Responders / Odds in favor of a response, TDI (+1 Unit) or E-RS (−2 Unit) Responders / % TDI (+1 Unit) or E-RS (−2 Unit) Responders: pooled mITT; for % E-RS (−2 Unit) or TDI (+1 Unit) Responders / % responders, E-RS (−2 Units) or TDI (+1 Unit) Responders / % TDI (+1 Unit) or E-RS (−2 Unit) Responders: 3 mg BID nebuliser; for % responders, E-RS (−2 Units) or TDI (+1 Unit) Responders / Ensifentrine v placebo Odds Ratio, E-RS (−2 Units) or TDI (+1 Unit) Responders / Odds in favour of response, E-RS (−2 Units) or TDI (+1 Unit) Responders: improvement in morning trough FEV1 less than 40 mL (table line prints <60 mL); for proportion of patients with a clinically important improvement in symptoms: over 24 weeks
# Protocol: (§1) Clinical studies were conducted to determine the efficacy of ensifentrine in treating COPD compared with placebo. Ensifentrine was administered by nebuliser at a dose of 3 mg twice daily (BID) for 24 weeks. The studies were multi-centre, randomized, double-blind, parallel-group, placebo-controlled trials.
# (§2) The study population included patients aged 40-80 years with moderate to severe COPD (FEV1 30%-70% p.n., FEV1/forced vital capacity (FVC) ratio<0.7, with mMRC≥2). The randomization stratified (a) the use of stable background maintenance LAMA or LABA therapy use (approx. 50%. yes or no) and (b) cigarette smoking (current or former). Inhaled corticosteroid (ICS) maintenance therapy was permitted in up to 20% of patients under certain provisions.
# (§3) The primary endpoint was change from baseline in average FEV1 area under the curve AUC0-12h post-dose at week 12. Also assessed were COPD symptoms and quality of life (QoL) in patients showing lower responses in terms of lung function, and in particular patients with: (i) improvement in average FEV1 AUC0-12h of less than 100 mL and (ii) improvement in morning trough FEV1 of less than 100 mL, less than 60 mL or less than 40 mL.
# (§4) COPD symptoms were assessed using Evaluating Respiratory Symptoms (E-RS; EXACT-Respiratory Symptoms, The minimal clinically important difference (MCID) of the E-RS is a total score of −2 units. User Manual (Version 3.0), October 2014) and Transitional Dyspnea Index (TDI; Mahler et al, The MCID of the transition dyspnea index is a total score of one unit. COPD 2005, 2:99-103.) and QoL was assessed using the St. George's Respiratory Questionnaire (SGRQ; Jones, St. George's Respiratory Questionnaire: The MCID of the SGRQ is a total score of −4 units. COPD 2005, 2:75-79.).
# [2] = test system: patients aged 40-80 years with moderate to severe COPD; assay: Clinical studies, ensifentrine vs placebo: quality of life responders (SGRQ −4 units) in patients with low FEV1 response; assay type: in vivo
# Protocol: as §1, §2, §3, §4
# [3] = FEV1 AUC0-12h <100 mL or morning trough FEV1 <100, <60 or <40 mL, overall conclusion
# [4] = average FEV1 AUC0-12h <100 mL at Week 12, Week 6
# [5] = average FEV1 AUC0-12h <100 mL at Week 12, Week 12
# [6] = average FEV1 AUC0-12h <100 mL at Week 12, Week 24
# [7] = morning trough FEV1 <60 mL at Week 6, Week 6
# [8] = morning trough FEV1 <60 mL at Week 12, Week 12
# [9] = morning trough FEV1 <60 mL at Week 24, Week 24
# [10] = morning trough FEV1 <100 mL at Week 6, Week 6
# [11] = morning trough FEV1 <100 mL at Week 12, Week 12
# [12] = morning trough FEV1 <100 mL at Week 24, Week 24
compound,measurement,setting,value
"COc1cc2c(cc1OC)-c1c/c(=N\c3c(C)cc(C)cc3C)n(CCNC(N)=O)c(=O)n1CC2 [Ensifentrine, N-(2-{(2E)-9,10-dimethoxy-4-oxo-2-[(2,4,6-trimethylphenyl)imino]-6,7-dihydro-2H-pyrimido[6,1-a]isoquinolin-3(4H)-yl}ethyl)urea]",subjects achieving symptom MCID,[1]; [3],approximately 70%
same,"Ensifentrine vs. Placebo Odds Ratio, E-RS (−2 Unit) or TDI (+1 Unit) Responders",[1]; [4],1.42
same,"Odds in favor of a response, E-RS (−2 Unit) or TDI (+1 Unit) Responders",[1]; [4],1.69
same,"Ensifentrine vs. Placebo Odds Ratio, E-RS (−2 Unit) or TDI (+1 Unit) Responders",[1]; [5],1.63
same,"Odds in favor of a response, E-RS (−2 Unit) or TDI (+1 Unit) Responders",[1]; [5],2.69
same,"Ensifentrine vs. Placebo Odds Ratio, E-RS (−2 Unit) or TDI (+1 Unit) Responders",[1]; [6],1.38
same,"Odds in favor of a response, E-RS (−2 Unit) or TDI (+1 Unit) Responders",[1]; [6],2.91
same,% E-RS (−2 Unit) or TDI (+1 Unit) Responders,"[1]; average FEV1 AUC0-12h <100 mL at Week 12, responders at Week 6",66.3%
same,% E-RS (−2 Unit) or TDI (+1 Unit) Responders,"[1]; average FEV1 AUC0-12h <100 mL at Week 12, responders at Week 12",71.2%
same,% E-RS (−2 Unit) or TDI (+1 Unit) Responders,"[1]; average FEV1 AUC0-12h <100 mL at Week 12, responders at Week 24",72.7%
same,"% responders, E-RS (−2 Units) or TDI (+1 Unit) Responders",[1]; Week 6,67.1%
same,"Ensifentrine v placebo Odds Ratio, E-RS (−2 Units) or TDI (+1 Unit) Responders",[1]; Week 6,1.468
same,"Odds in favour of response, E-RS (−2 Units) or TDI (+1 Unit) Responders",[1]; Week 6,1.453
same,"% responders, E-RS (−2 Units) or TDI (+1 Unit) Responders",[1]; Week 12,70.4%
same,"Ensifentrine v placebo Odds Ratio, E-RS (−2 Units) or TDI (+1 Unit) Responders",[1]; Week 12,1.433
same,"Odds in favour of response, E-RS (−2 Units) or TDI (+1 Unit) Responders",[1]; Week 12,2.338
same,"% responders, E-RS (−2 Units) or TDI (+1 Unit) Responders",[1]; Week 24,73.0%
same,"Ensifentrine v placebo Odds Ratio, E-RS (−2 Units) or TDI (+1 Unit) Responders",[1]; Week 24,1.370
same,"Odds in favour of response, E-RS (−2 Units) or TDI (+1 Unit) Responders",[1]; Week 24,3.238
same,proportion of patients with a clinically important improvement in symptoms,[1]; increase in average FEV1 AUC0-12h less than 100 mL at Week 12,at least ⅔
same,proportion of patients with a clinically important improvement in symptoms,[1]; increase in morning trough FEV1 less than 100 mL at Week 12,at least ⅔
same,"Ensifentrine vs. Placebo Odds Ratio, TDI (+1 Unit) or E-RS (−2 Unit) Responders",[1]; [7],1.42
same,"Odds in favor of a response, TDI (+1 Unit) or E-RS (−2 Unit) Responders",[1]; [7],1.35
same,% TDI (+1 Unit) or E-RS (−2 Unit) Responders,"[1]; morning trough FEV1 <60 mL at Week 6, responders at Week 6",65.3%
same,"Ensifentrine vs. Placebo Odds Ratio, TDI (+1 Unit) or E-RS (−2 Unit) Responders",[1]; [8],1.59
same,"Odds in favor of a response, TDI (+1 Unit) or E-RS (−2 Unit) Responders",[1]; [8],2.83
same,% TDI (+1 Unit) or E-RS (−2 Unit) Responders,"[1]; morning trough FEV1 <60 mL at Week 12, responders at Week 12",71.3%
same,"Ensifentrine vs. Placebo Odds Ratio, TDI (+1 Unit) or E-RS (−2 Unit) Responders",[1]; [9],1.36
same,"Odds in favor of a response, TDI (+1 Unit) or E-RS (−2 Unit) Responders",[1]; [9],2.74
same,% TDI (+1 Unit) or E-RS (−2 Unit) Responders,"[1]; morning trough FEV1 <60 mL at Week 24, responders at Week 24",71.7%
same,"Ensifentrine vs. Placebo Odds Ratio, E-RS (−2 Unit) or TDI (+1 Unit) Responders",[1]; [10],1.43
same,"Odds in favor of a response, E-RS (−2 Unit) or TDI (+1 Unit) Responders",[1]; [10],1.47
same,% E-RS (−2 Unit) or TDI (+1 Unit) Responders,"[1]; morning trough FEV1 <100 mL at Week 6, responders at Week 6",66.1%
same,"Ensifentrine vs. Placebo Odds Ratio, E-RS (−2 Unit) or TDI (+1 Unit) Responders",[1]; [11],1.73
same,"Odds in favor of a response, E-RS (−2 Unit) or TDI (+1 Unit) Responders",[1]; [11],2.96
same,% E-RS (−2 Unit) or TDI (+1 Unit) Responders,"[1]; morning trough FEV1 <100 mL at Week 12, responders at Week 12",71.9%
same,"Ensifentrine vs. Placebo Odds Ratio, E-RS (−2 Unit) or TDI (+1 Unit) Responders",[1]; [12],1.42
same,"Odds in favor of a response, E-RS (−2 Unit) or TDI (+1 Unit) Responders",[1]; [12],2.75
same,% E-RS (−2 Unit) or TDI (+1 Unit) Responders,"[1]; morning trough FEV1 <100 mL at Week 24, responders at Week 24",72.0%
same,subjects achieving QoL MCID,[2]; [3],~50%
same,"Ensifentrine vs. Placebo Odds Ratio, SGRQ (−4 Unit) Responders","[2]; average FEV1 AUC0-12h <100 mL at Week 12, Week 6, logistic regression, pooled mITT",1.32
